Results reported in ChEMBL document CHEMBL5584252, “Stereochemical inversion at a 1,4-cyclohexyl PROTAC linker fine-tunes conformation and binding affinity” (Bioorg Med Chem Lett, 2024).
Blank lines part the entries; values can stand above or below the compound they belong to.

Tests used:
[1] = target: Protein cereblon/Leucine-rich repeat serine/threonine-protein kinase 2 (Homo sapiens, UniProt Q5S007+Q96SW2); test: PROTAC activity at CRBN/LRRK2 (unknown origin); type: protein assay
[2] = target: T1, Von Hippel-Lindau disease tumor suppressor/Elongin B/Elongin C (Homo sapiens, UniProt P40337); test: Displacement of JC-9 probe from recombinant VHL/Elongin C/Elogin B (unknown origin) using FAM-DEALA-Hyp-YIPMDDDFQLRSF as substrate assessed as dissociation constant by competitive fluorescence polarization assay; type: protein-complex assay
[3] = target: T1, Von Hippel-Lindau disease tumor suppressor/Elongin B/Elongin C; test: Binding affinity to VHL/Elongin C/Elogin B (unknown origin) assessed as dissociation constant at 20 uM by ITC analysis; type: protein-complex assay
[4] = target: T2, Von Hippel-Lindau disease tumor suppressor/Elongin B/Elongin C (Homo sapiens) (UniProt P40337+Q15370+Q15369); test: Binding affinity to VHL/Elongin C/Elogin B (unknown origin) assessed as change in enthalpy at 20 uM by ITC analysis; type: protein-complex assay
[5] = target: T2, Von Hippel-Lindau disease tumor suppressor/Elongin B/Elongin C (Homo sapiens); test: Binding affinity to VHL/Elongin C/Elogin B (unknown origin) assessed as change in gibbs free energy at 20 uM by ITC analysis; type: protein-complex assay
[6] = target: T2, Von Hippel-Lindau disease tumor suppressor/Elongin B/Elongin C (Homo sapiens); test: Binding affinity to VHL/Elongin C/Elogin B (unknown origin) assessed as change in entropy at 20 uM by ITC analysis; type: protein-complex assay
[7] = target: T3, von Hippel-Lindau disease tumor suppressor/Leucine-rich repeat serine/threonine-protein kinase 2 (Mus musculus) (UniProt Q5S006+P40338); test: PROTAC activity at VHL/wildtype LRRK2 in MEF cells assessed as induction of LRRK2 degradation by measuring half-life at 300 nM incubated for 48 hrs by Western blot analysis; type: cell-based
[8] = target: T3, von Hippel-Lindau disease tumor suppressor/Leucine-rich repeat serine/threonine-protein kinase 2 (Mus musculus); test: PROTAC activity at VHL/wildtype LRRK2 in MEF cells assessed as induction of LRRK2 degradation by measuring maximal efficacy at 300 nM incubated for 48 hrs by Western blot analysis relative to control; type: cell-based
[9] = target: T1, Von Hippel-Lindau disease tumor suppressor/Elongin B/Elongin C; test: Binding affinity to VHL/Elongin C/Elogin B (unknown origin) using FAM-DEALA-Hyp-YIPMDDDFQLRSF as substrate assessed as dissociation constant by fluorescence polarization assay; type: protein-complex assay
HEK293 = test: Binding affinity to C-terminal NanoLuc fused human LRRK2/VHL-elongin-B-elongin C (unknown origin) complex expressed in HEK293 cells assessed as ternary complex formation by measuring cooperativity factor by NanoBRET based assay; type: cell-based

T3 sequence (P40338 whole entry, looked up): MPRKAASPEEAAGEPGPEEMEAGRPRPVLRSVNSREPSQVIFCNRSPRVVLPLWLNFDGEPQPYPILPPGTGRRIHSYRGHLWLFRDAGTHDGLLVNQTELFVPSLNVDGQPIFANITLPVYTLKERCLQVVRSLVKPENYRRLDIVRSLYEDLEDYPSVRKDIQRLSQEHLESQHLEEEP
T3 sequence (Q5S006 whole entry, looked up): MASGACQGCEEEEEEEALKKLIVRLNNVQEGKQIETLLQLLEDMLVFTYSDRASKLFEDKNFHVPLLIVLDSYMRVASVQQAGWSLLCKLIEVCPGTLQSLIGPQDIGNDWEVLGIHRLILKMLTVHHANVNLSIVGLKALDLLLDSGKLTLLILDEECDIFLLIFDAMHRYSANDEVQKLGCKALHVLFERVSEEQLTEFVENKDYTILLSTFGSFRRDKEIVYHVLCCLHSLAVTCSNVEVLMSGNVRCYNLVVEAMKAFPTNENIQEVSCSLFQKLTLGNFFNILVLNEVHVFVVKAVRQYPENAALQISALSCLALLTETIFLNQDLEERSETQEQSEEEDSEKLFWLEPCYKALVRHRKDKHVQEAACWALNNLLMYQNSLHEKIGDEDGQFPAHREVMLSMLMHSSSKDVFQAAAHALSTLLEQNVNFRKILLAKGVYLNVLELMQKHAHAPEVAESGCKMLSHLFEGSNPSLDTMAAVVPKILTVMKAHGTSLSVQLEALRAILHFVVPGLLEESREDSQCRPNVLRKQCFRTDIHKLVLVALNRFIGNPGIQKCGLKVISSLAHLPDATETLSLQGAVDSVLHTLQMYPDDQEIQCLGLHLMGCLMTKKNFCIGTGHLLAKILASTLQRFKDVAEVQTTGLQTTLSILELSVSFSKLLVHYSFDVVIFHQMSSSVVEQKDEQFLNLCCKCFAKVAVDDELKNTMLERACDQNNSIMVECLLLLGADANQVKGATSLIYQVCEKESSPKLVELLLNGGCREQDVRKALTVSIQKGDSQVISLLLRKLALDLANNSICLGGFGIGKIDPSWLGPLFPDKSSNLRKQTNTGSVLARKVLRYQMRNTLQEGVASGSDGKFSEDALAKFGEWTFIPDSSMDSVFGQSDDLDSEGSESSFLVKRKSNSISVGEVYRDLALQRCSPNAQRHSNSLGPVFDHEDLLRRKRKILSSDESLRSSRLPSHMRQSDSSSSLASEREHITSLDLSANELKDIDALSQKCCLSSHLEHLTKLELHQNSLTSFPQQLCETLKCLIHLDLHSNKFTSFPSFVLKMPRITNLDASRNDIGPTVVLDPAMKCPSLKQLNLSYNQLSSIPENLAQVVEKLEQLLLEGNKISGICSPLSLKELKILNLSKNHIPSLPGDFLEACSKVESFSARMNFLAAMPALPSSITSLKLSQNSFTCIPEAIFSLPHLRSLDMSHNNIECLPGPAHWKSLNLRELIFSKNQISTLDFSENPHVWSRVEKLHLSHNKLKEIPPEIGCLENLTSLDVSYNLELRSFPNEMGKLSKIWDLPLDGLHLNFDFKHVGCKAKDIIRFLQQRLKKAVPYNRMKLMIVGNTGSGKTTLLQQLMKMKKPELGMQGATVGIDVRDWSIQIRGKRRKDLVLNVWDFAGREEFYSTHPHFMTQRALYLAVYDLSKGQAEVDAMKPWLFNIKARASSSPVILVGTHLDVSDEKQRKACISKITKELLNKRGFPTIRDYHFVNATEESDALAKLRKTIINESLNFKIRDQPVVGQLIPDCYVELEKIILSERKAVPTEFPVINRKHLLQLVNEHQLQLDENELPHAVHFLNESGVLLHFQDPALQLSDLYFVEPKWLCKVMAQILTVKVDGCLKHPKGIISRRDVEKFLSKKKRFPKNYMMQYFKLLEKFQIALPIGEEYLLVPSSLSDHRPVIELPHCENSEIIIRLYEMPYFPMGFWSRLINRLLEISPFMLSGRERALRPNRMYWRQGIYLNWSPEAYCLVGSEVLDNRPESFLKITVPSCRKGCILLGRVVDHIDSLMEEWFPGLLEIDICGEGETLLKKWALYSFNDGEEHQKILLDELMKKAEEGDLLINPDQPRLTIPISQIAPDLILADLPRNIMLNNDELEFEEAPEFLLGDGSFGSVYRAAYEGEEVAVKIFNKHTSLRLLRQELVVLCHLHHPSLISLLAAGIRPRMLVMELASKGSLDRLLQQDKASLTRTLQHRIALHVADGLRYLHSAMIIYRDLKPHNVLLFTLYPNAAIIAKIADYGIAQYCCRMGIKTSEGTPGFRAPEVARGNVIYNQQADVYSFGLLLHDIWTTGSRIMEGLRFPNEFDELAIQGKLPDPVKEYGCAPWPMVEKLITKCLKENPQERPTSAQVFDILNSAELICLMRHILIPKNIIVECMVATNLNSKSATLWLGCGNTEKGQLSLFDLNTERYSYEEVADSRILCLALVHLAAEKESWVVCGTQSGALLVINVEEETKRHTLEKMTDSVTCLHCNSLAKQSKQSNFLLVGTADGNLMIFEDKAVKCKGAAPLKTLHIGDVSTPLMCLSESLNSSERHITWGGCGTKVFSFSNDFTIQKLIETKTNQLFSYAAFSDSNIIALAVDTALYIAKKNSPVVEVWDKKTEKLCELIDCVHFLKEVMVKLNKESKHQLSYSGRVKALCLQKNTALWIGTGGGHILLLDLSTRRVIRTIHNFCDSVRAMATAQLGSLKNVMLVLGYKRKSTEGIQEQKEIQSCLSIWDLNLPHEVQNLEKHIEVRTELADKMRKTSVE
T1 sequence (P40337 whole entry, looked up): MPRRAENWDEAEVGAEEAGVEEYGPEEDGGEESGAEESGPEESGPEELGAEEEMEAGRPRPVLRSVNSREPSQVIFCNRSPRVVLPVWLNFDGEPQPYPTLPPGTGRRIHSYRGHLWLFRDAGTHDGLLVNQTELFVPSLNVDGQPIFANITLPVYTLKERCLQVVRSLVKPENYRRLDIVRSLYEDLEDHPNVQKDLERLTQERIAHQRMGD
T2 sequence (P40337 whole entry, looked up): as above
T2 sequence (Q15369 whole entry, looked up): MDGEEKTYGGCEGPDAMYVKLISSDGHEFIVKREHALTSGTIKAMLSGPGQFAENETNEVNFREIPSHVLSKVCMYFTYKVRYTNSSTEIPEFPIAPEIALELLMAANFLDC
T2 sequence (Q15370 whole entry, looked up): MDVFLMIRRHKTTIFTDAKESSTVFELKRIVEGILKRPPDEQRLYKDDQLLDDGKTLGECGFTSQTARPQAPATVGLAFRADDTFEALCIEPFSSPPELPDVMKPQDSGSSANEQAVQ

SMILES: CC1(Oc2ccc3[nH]nc(-c4cc(N5CCN(C[C@H]6CC[C@@H](CN7CCN(c8ccc9c(c8F)CN(C8CCC(=O)NC8=O)C9=O)CC7)CC6)CC5)ncn4)c3c2)CC1 (stereo partly specified)
DC50 [1]: < 10 nM

SMILES: Cc1ncsc1-c1ccc(CNC(=O)[C@@H]2C[C@@H](O)CN2C(=O)[C@@H](NC(=O)C2(F)CC2)C(C)(C)SC[C@H]2CC[C@H](CN(C)C)CC2)cc1
Kd [2]: 514 nM

SMILES: Cc1ncsc1-c1ccc(CNC(=O)[C@@H]2C[C@@H](O)CN2C(=O)[C@@H](NC(=O)C2(F)CC2)C(C)(C)SC[C@H]2CC[C@@H](CN3CCOCC3)CC2)cc1
Kd [2]: 354 nM | Kd [3]: 165 nM | deltaH [4]: -7.96 kcal/mol | deltaG [5]: -9.25 kcal/mol | TdeltaS [6]: -1.31 kcal/mol

SMILES: CSC(C)(C)[C@H](NC(=O)C1(F)CC1)C(=O)N1C[C@H](O)C[C@H]1C(=O)NCc1ccc(-c2scnc2C)cc1
Kd [2]: 406 nM

SMILES: CNc1nc(Nc2ccc(C(=O)N3CCN(C[C@H]4CC[C@H](CSC(C)(C)[C@H](NC(=O)C5(F)CC5)C(=O)N5C[C@H](O)C[C@H]5C(=O)NCc5ccc(-c6scnc6C)cc5)CC4)CC3)cc2OC)ncc1Cl
Kd [2]: > 820 nM | T1/2 [7]: 1.2 h | Emax [8]: 82% | Kd [9]: > 2330 nM | Activity (HEK293): 5.7

SMILES: COc1ccc(C(=O)N2CCN(C[C@H]3CC[C@H](CSC(C)(C)[C@H](NC(=O)C4(F)CC4)C(=O)N4C[C@H](O)C[C@H]4C(=O)NCc4ccc(-c5scnc5C)cc4)CC3)CC2)cc1
Kd [2]: 585 nM

SMILES: Cc1ncsc1-c1ccc(CNC(=O)[C@@H]2C[C@@H](O)CN2C(=O)[C@@H](NC(=O)C2(F)CC2)C(C)(C)SC[C@H]2CC[C@H](CN3CCOCC3)CC2)cc1
Kd [2]: 540 nM | Kd [3]: 396 nM | deltaH [4]: -6.98 kcal/mol | deltaG [5]: -8.75 kcal/mol | TdeltaS [6]: -1.77 kcal/mol

More lines, main results first:

Kd [2]: 326 nM | T1/2 [7]: 2.7 h | Emax [8]: 59% | Kd [9]: 160 nM
SMILES: CNc1nc(Nc2ccc(C(=O)N3CCN(C[C@H]4CC[C@@H](CSC(C)(C)[C@H](NC(=O)C5(F)CC5)C(=O)N5C[C@H](O)C[C@H]5C(=O)NCc5ccc(-c6scnc6C)cc5)CC4)CC3)cc2OC)ncc1Cl
Activity (HEK293): 1.4

Kd [2]: 313 nM
SMILES: Cc1ncsc1-c1ccc(CNC(=O)[C@@H]2C[C@@H](O)CN2C(=O)[C@@H](NC(=O)C2(F)CC2)C(C)(C)SC[C@H]2CC[C@@H](CN(C)C)CC2)cc1

Kd [2]: 260 nM
SMILES: COc1ccc(C(=O)N2CCN(C[C@H]3CC[C@@H](CSC(C)(C)[C@H](NC(=O)C4(F)CC4)C(=O)N4C[C@H](O)C[C@H]4C(=O)NCc4ccc(-c5scnc5C)cc4)CC3)CC2)cc1
